For this assay, the system named is Helicobacter pylori. Put plainly: Paper disc inhibition assay on blood agar plates (inhibition zone). Format: cell-based. As to the method:
The test organisms used in the inhibition assay were fresh isolates of Helicobacter pylori from patients with duodenal ulcer or non-ulcer dyspepsia, except strain NCTC 11637 which originates from a deposit freely available to the public. NCTC 11637 is a metronidazole resistant strain. All strains were stored frozen. For each inhibition assay fresh strains were thawed in a waterbath at 37°C. Helicobacter pylori strains were incubated with shaking (150 rpm) for 48 hours in 10 ml brain heart infusion […] containing 7% fetal calf serum at 37°C under an atmosphere of 10% CO₂, 5% O₂ and 85% N₂. After washing with phosphate buffered saline and centrifugation the pellet was resuspended and diluted until a density of 10-20 nephelometric turbidity units was achieved and subsequently smeared on blood agar plates. A paper disc with a diameter of 7 mm was placed in the centre of the plate. The test compounds were dissolved in dimethylsulfoxide (DMSO) and 20 µl of these solutions were applied to the disc. After three days of culturing at 37°C under microaerophilic conditions the inhibition zone was measured in mm.
Table I. In vitro activity of the compounds according to the invention on Helicobacter pylori. Inhibition zones are given in mm, 7 mm means no activity.
Compound GBR 24156, an ester of penicillin V and metronidazole has, in a concentration of 1.7 µg/ml, been compared with the combination of single substances penicillin V and metronidazole, both in a concentration of 0.85 µg/ml.
Table II. In vitro activity of GBR 24156 compared to the activity of penicillin V and metronidazole on Helicobacter pylori. Inhibition zones are given in mm; 7 mm means no activity.

Setting [1] is: Helicobacter pylori, 72 h, H. pylori strain A85, concentration 20 µg/ml, 7 mm means no activity.
Setting [2] is: Helicobacter pylori, 72 h, H. pylori strain B104, concentration 20 µg/ml, 7 mm means no activity.
Setting [3] is: Helicobacter pylori, 72 h, H. pylori strain C85, concentration 20 µg/ml, 7 mm means no activity.
[4] abbreviates: Helicobacter pylori, 72 h, H. pylori strain D9, concentration 20 µg/ml (20 µl on 7 mm disc), 7 mm means no activity.
Where [5] appears, read: Helicobacter pylori, 72 h, H. pylori strain D20, concentration 20 µg/ml, 7 mm means no activity.
[6] abbreviates: Helicobacter pylori, 72 h, H. pylori strain D29, concentration 20 µg/ml, 7 mm means no activity.
The mark [7] stands for this setting: Helicobacter pylori, NCTC11637, 72 h, H. pylori strain NCTC 11637 (metronidazole resistant), concentration 20 µg/ml, 7 mm means no activity.
The mark [8] stands for this setting: Helicobacter pylori, 72 h, H. pylori strain A85, concentration 50 µg/ml, 7 mm means no activity.
Setting [9] is: Helicobacter pylori, 72 h, H. pylori strain C85, concentration 50 µg/ml, 7 mm means no activity.
[10] abbreviates: Helicobacter pylori, 72 h, H. pylori strain D9, concentration 50 µg/ml (20 µl on 7 mm disc), 7 mm means no activity.
Where [11] appears, read: Helicobacter pylori, 72 h, H. pylori strain D20, concentration 50 µg/ml, 7 mm means no activity.
Where [12] appears, read: Helicobacter pylori, NCTC11637, 72 h, H. pylori strain NCTC 11637 (metronidazole resistant), concentration 50 µg/ml, 7 mm means no activity.

Each structure is given as a SMILES string.

For `Cc1ncc([N+](=O)[O-])n1CCOC(=O)C(C)(C)O/N=C(\C(=O)N[C@@H]1C(=O)N(S(=O)(=O)O)[C@H]1C)c1csc(N)n1` [GBR 24164], the zone of inhibition at 100 µg/mL by setting is: (Helicobacter pylori, 72 h, H. pylori strain B104, concentration 100 µg/ml, 7 mm means no activity) 20 mm; (Helicobacter pylori, 72 h, H. pylori strain C85, concentration 100 µg/ml, 7 mm means no activity) 7 mm; (Helicobacter pylori, 72 h, H. pylori strain D9, concentration 100 µg/ml (20 µl on 7 mm disc), 7 mm means no activity) 16 mm; (Helicobacter pylori, 72 h, H. pylori strain D20, concentration 100 µg/ml, 7 mm means no activity) 7 mm; (Helicobacter pylori, 72 h, H. pylori strain D29, concentration 100 µg/ml, 7 mm means no activity) 12 mm; (Helicobacter pylori, NCTC11637, 72 h, H. pylori strain NCTC 11637 (metronidazole resistant), concentration 100 µg/ml, 7 mm means no activity) 7 mm.

Take `Cc1ncc([N+](=O)[O-])n1CCOC(=O)COC(=O)[C@@H]1N2C(=O)[C@@H](NC(=O)COc3ccccc3)[C@H]2SC1(C)C` [GBR 24157, [2-(2-Methyl-5-nitroimidazol-1-yl)ethoxy] carbonylmethyl (3S,5R,6R)-2,2-dimethyl-6-phenoxyacetamidopenam-3-carboxylate]: the zone of inhibition at 20 µg/mL is, setting by setting: under setting [1], 10 mm; under setting [2], 11 mm; under setting [3], 14 mm; under setting [4], 28 mm; under setting [5], 24 mm; under setting [6], 13 mm. The zone of inhibition at 20 µg/mL under setting [7] stood at 7 mm.

Consider `Cc1ncc([N+](=O)[O-])n1CCOC(=O)OCOC(=O)[C@@H]1N2C(=O)[C@@H](NC(=O)COc3ccccc3)[C@H]2SC1(C)C` [GBR 24158, [2-(2-Methyl-5-nitroimidazol-1-yl)ethoxy]carbonyloxymethyl (3S,5R,6R)-2,2-dimethyl-6-phenoxyacetamidopenam-3-carboxylate], for which the zone of inhibition at 20 µg/mL is, setting by setting: under setting [1], 19 mm; under setting [2], 27 mm; under setting [3], 29 mm; under setting [4], 47 mm; under setting [5], 34 mm; under setting [6], 20 mm. The zone of inhibition at 20 µg/mL under setting [7] stood at 15 mm.

As to `Cc1ncc([N+](=O)[O-])n1CCOC(=O)[C@@H]1N2C(=O)[C@@H](NC(=O)COc3ccccc3)[C@H]2SC1(C)C` [GBR 24156, 2-(2-Methyl-5-nitroimidazol-1-yl)ethyl (3S,5R,6R)-2,2-dimethyl-6-phenoxy acetamidopenam-3-carboxylate], the “in vitro growth inhibition (in words)” value (Helicobacter pylori NCTC 11637, known for resistance against metronidazole) is on record as “able to inhibit in vitro growth”. The zone of inhibition at 50 µg/mL (Helicobacter pylori, 72 h, H. pylori strain 88-A-13, concentration 50 µg/ml, 7 mm means no activity) came out at 30 mm; the zone of inhibition at 50 µg/mL under setting [8] was found to be 60 mm; the zone of inhibition at 50 µg/mL (Helicobacter pylori, 72 h, H. pylori strain B104, concentration 50 µg/ml, 7 mm means no activity) came to 42 mm; the zone of inhibition at 50 µg/mL under setting [9] turned out to be 22 mm; the zone of inhibition at 50 µg/mL under setting [10] came to 48 mm; the zone of inhibition at 50 µg/mL under setting [11] was found to be 51 mm. Further, the zone of inhibition at 50 µg/mL stood at 77 mm (Helicobacter pylori, 72 h, H. pylori strain D29, concentration 50 µg/ml, 7 mm means no activity) and 41 mm under setting [12]. Further, the zone of inhibition at 1.7 µg/mL (Helicobacter pylori, NCTC11637, 72 h, H. pylori strain NCTC 11637, concentration 1.7 µg/ml, 7 mm means no activity) was determined as 19 mm.

Turning to `Cc1ncc([N+](=O)[O-])n1CCOC(=O)COC(=O)C(C)(C)O/N=C(\C(=O)N[C@@H]1C(=O)N(S(=O)(=O)O)[C@H]1C)c1csc(N)n1` [GBR 24165], the zone of inhibition at 50 µg/mL is, setting by setting: under setting [8], 29 mm; under setting [9], 10 mm; under setting [10], 36 mm; under setting [11], 12 mm; under setting [12], 33 mm.

On to `Cc1ncc([N+](=O)[O-])n1CCOC(=O)COC(=O)[C@@H]1N2C(=O)[C@@H](NC(=O)[C@H](N)c3ccc(O)cc3)[C@H]2SC1(C)C` [GBR 24208, [2-(2-Methyl-5-nitroimidazol-1-yl)ethoxy]carbonylmethyl(3S,5R,6R)-6-[(R)-2-amino-2-(4-hydroxyphenyl)acetamido]-2,2-dimethylpenam-3-carboxylate], for which the zone of inhibition at 268 µg/mL stood at 10 mm (Helicobacter pylori, 72 h, H. pylori strain A85, concentration 268 µg/ml, 7 mm means no activity); 15 mm (Helicobacter pylori, 72 h, H. pylori strain D9, concentration 268 µg/ml (20 µl on 7 mm disc), 7 mm means no activity); 10 mm (Helicobacter pylori, NCTC11637, 72 h, H. pylori strain NCTC 11637 (metronidazole resistant), concentration 268 µg/ml, 7 mm means no activity).

Usually zone of inhibition stands for the extent of the growth-free halo in a diffusion test.

(Values after patent EP0490450A1, “Heterocyclic carboxylic esters, methods for their preparation and their use for the preparation of gastrointestinal medicines” (YAMANOUCHI EUROPE B.V., priority 1990, dated 1992).)
